Experimental data published in paper PMC11369887 (RSC Advances, 2024).
Read-outs that look alike come from different tables or passages of the source.

What was measured:
[1] = test system: human breast cancer (MCF-7) cell line; assay: MTT cytotoxicity assay, MCF-7; conditions: Homo sapiens, MCF7, 48 h, read-out: Cytotoxicity IC50 MCF-7
Experimental: (§2) The newly synthesized compounds were evaluated for their in vitro growth inhibition of three human tumor cell lines representing different tumor types, namely, breast adenocarcinoma (MCF-7), liver hepatocellular carcinoma (Hep3B) and leukemia-SR. […] The breast tumor cell line (MCF-7), hepatic tumor cell line (Hep3B) and leukemia-SR cell line were obtained from American Type Culture Collection. The cells were cultured using Dulbecco's modified Eagle's medium (DMEM) (Invitrogen/Life Technologies) supplemented with 10% fetal bovine serum (FBS) (Hyclone), 10 μg mL^−1 of insulin (Sigma), and 1% penicillin–streptomycin. […] For 24 hours before to the MTT experiment, plate cells (densities of 1.2–1.8 × 10 000 cells per well) were layered in a 96-well plate containing 100 μL of the tested chemical per well and 100 μL of full growth media.
(§3) The culture medium was transferred to a centrifuge tube. […] Then 2.0 to 3.0 mL of Trypsin EDTA solution was added to the flask, and the cells were observed using an inverted microscope until the cell layer became dispersed (usually within 5–15 min). After that, 6.0 to 8.0 mL of complete growth medium was added and the cells were aspirated by gently pipetting. The cell suspension was transferred to the centrifuge tube with the medium and cells from step 1 and centrifuged at approximately 125 g for 5–10 min. The supernatant was discarded. The cell pellet was re-suspended in a fresh growth medium. Appropriate aliquots of the cell suspension were added to new culture vessels.
(§4) For the best results, the cells in the log phase of growth should be employed and the final cell number should not exceed 10^6 cells per cm^2. Each test should include a blank containing a complete medium without cells. Cultures from the incubator were transferred into a laminar flow hood or other sterile work area. […] Reconstituted MTT was added in an amount equal to 10% of the culture medium volume. Cultures were returned to the incubator for 2–4 h depending on the cell type and maximum cell density. An incubation period of 2 h is generally adequate but may be lengthened for low cell densities or cells with lower metabolic activity. The incubation times should be consistent when making comparisons. […] Occasionally, especially in dense cultures, pipetting up and down may be required to completely dissolve the MTT formazan crystals. The absorbance was spectrophotometrically measured at a wavelength of 570 nm. The background absorbance of multiwell plates was measured at 690 nm and subtracted from the 450 nm measurement. Tests performed in multiwell plates might be read using an appropriate type of plate reader or the contents of individual wells might be transferred to appropriate size cuvettes for spectrophotometric measurement.

[2] = in vitro; conditions: human, THLE2 normal liver cells
Experimental: (§5) The following normal cell lines were selected: normal breast MCF-10a, normal liver THLE2 and normal lymphocyte PCS-800-011. […] Moreover, the toxic effect of representative target compounds was evaluated on normal breast (MCF10a), normal liver (THLE2) and normal lymphocyte (PCS-800-011) cell lines using an MTT assay. […] The cells were cultured using Dulbecco's modified Eagle's medium (DMEM) (Invitrogen/Life Technologies) supplemented with 10% fetal bovine serum (FBS) (Hyclone), 10 μg mL^−1 of insulin (Sigma), and 1% penicillin–streptomycin. All chemicals and reagents were purchased from Sigma-Aldrich or Invitrogen. For 24 hours before to the MTT experiment, plate cells (densities of 1.2–1.8 × 10 000 cells per well) were layered in a 96-well plate containing 100 μL of the tested chemical per well and 100 μL of full growth media.
as §3, §4

[3] = test system: leukemia (L-SR) cell line; assay: MTT cytotoxicity assay, L-SR; conditions: Homo sapiens, 48 h, read-out: Cytotoxicity IC50 L-SR
Experimental: as §2, §3, §4

[4] = in vitro; conditions: human, PCS-800-011 normal lymphocyte cells
Experimental: as §5, §3, §4

[5] = test system: human liver cancer (Hep3B) cell line; assay: MTT cytotoxicity assay, Hep3B; conditions: Homo sapiens, Hep3B
Experimental: as §2, §3, §4

[6] = molecular target: T1, human DNA topoisomerase II beta (Topo2β) (Homo sapiens, UniProt Q02880); assay: Topo2β polymerase inhibition assay (ELISA), Hep3B; assay type: cell-based; set-up: concentration or dose not given beside the values; conditions: against Hep3B cell line
T1 sequence (Q02880 whole entry): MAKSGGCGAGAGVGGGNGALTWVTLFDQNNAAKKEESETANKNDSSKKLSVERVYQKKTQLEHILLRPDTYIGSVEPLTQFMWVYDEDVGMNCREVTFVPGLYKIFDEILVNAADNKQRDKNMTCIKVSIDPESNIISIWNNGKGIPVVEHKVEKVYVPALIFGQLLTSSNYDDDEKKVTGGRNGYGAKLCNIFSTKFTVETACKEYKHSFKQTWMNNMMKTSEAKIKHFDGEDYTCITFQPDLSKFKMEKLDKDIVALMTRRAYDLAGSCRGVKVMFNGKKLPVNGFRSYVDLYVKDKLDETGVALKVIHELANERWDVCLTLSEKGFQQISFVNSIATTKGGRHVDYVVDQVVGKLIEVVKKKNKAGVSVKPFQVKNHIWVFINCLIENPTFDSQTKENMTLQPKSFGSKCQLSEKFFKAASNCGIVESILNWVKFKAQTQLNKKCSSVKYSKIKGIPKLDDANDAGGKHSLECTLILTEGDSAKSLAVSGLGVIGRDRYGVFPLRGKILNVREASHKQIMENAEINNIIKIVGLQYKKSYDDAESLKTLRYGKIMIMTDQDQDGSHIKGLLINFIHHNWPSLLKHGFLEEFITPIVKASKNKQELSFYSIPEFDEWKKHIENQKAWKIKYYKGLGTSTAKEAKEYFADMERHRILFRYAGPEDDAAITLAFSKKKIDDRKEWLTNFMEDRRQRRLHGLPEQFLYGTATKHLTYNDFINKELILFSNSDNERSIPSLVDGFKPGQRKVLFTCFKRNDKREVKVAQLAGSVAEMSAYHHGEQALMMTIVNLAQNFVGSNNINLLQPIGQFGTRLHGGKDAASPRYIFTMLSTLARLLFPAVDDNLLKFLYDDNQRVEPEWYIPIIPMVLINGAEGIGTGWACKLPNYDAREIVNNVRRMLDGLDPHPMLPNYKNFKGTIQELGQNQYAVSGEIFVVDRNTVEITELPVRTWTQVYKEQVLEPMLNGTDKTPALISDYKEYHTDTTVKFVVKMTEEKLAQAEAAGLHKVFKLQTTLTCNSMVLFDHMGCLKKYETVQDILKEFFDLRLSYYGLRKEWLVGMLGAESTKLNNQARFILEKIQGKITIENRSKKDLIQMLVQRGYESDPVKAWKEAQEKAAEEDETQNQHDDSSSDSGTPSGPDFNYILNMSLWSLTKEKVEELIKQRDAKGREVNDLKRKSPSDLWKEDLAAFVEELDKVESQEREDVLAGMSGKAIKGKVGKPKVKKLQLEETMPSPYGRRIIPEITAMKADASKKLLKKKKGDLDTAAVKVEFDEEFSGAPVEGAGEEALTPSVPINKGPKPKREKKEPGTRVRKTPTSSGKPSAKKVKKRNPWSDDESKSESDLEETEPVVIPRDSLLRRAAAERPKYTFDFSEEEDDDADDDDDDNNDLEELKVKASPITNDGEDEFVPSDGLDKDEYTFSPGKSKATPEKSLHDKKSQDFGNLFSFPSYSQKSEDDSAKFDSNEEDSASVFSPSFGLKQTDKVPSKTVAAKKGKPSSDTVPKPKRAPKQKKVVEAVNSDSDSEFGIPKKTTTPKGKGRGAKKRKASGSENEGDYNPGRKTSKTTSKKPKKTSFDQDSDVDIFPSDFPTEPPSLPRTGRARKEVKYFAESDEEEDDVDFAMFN
Experimental: (§1) This assay was employed to predict the inhibitory effects of novel compounds on Topo2β. […] The melting points were determined using a Stuart apparatus, and the values given are uncorrected. IR spectra were recorded using a Shimadzu IR 4000s spectrophotometer (KBr, cm^−1) at the College of Pharmaceutical Sciences and Drug Manufacturing, Misr University for Science and Technology, Egypt. ^1H NMR spectra were recorded using a Bruker 400 MHz (Bruker Corp., Billerica, MA, USA) spectrophotometer, Faculty of Pharmacy, Cairo University, Cairo, Egypt and the Centre of Drug Discovery Research & Development, Faculty of Pharmacy, Ain shams University, and a Jeol 500 MHz spectrophotometer at the National Research Center. Chemical shifts were recorded in ppm on a δ scale, coupling constants (J) were given in Hz and peak multiplicities are designed as follows: s, singlet; d, doublet; t, triplet; m, multiplet. ^13C NMR spectra were recorded using a Bruker 100 MHz spectrophotometer, Faculty of Pharmacy, Cairo University and the Centre of Drug Discovery Research & Development, Faculty of Pharmacy, Ain shams University, and a Jeol 500 MHz spectrophotometer at the National Research Center. Chemical shifts were recorded in ppm on a δ scale. Microanalyses for C, H, and N were carried out at the Regional Center for Mycology and Biotechnology, Faculty of Pharmacy, Al-Azhar University. C, H, and N analysis values were accepted within the range of ± 0.4 of the calculated percentages. […] The used eluting system was methanol : hexane with a ratio of 9.5/0.5 respectively. Scientific microwave MAS-II was used under 300 W microwave irradiation, operating at 80 °C. The evaluation of the cytotoxic activity was performed at VACSERA, Giza, Egypt, using MCF-7, Hep3B and leukemia SR cell lines. Enzyme assay, cell cycle analysis, apoptosis and caspase-3 assay were carried out at VACSERA, Giza, Egypt using an SEB870Hu 96 Tests Enzyme-linked Immunosorbent Assay Kit for Topoisomerase II Beta.
This assay employs a quantitative sandwich enzyme immunoassay technique. […] Antibody specific for Topo2β was pre-coated onto a microplate. Standards and samples were pipetted into the wells and any Topo2β present was bound by the immobilized antibody. After removing any unbound substances, a biotin-conjugated antibody specific for Topo2β was added to the wells. After washing, avidin-conjugated Horseradish Peroxidase (HP) was added to the wells. Following washing to remove any unbound avidin–enzyme reagent, a substrate solution was added to the wells and color develops in proportion to the amount of Topo2β bound in the initial step. The color development was stopped, and the intensity of the color was measured. […] The sensitivity of this assay or lower limit of detection (LLD) is defined as the lowest protein concentration that could be differentiated from zero. The mean OD value of 20 replicates of the zero standard was determined and added to their three standard deviations.[64]

[7] = test system: leukemia (L-SR) cell line
Experimental: as §2, §3, §4

[8] = test system: human liver cancer (Hep3B) cell line
Experimental: as §2, §3, §4

[9] = test system: human breast cancer (MCF-7) cell line
Experimental: as §2, §3, §4

[10] = molecular target: T1, human DNA topoisomerase II beta (Topo2β); assay: Topo2β polymerase inhibition assay (ELISA), MCF-7; assay type: cell-based; conditions: against MCF-7 cell line
Experimental: as §1, with “Enzyme assay, cell cycle analysis, apoptosis and caspase-3 assay were carried out at VACSERA, Giza, Egypt using an SEB870Hu 96 Tests Enzyme-linked Immunosorbent Assay Kit for Topoisomerase II Beta.” left out
This assay employs a quantitative sandwich enzyme immunoassay technique. […] The color development was stopped, and the intensity of the color was measured. […] The mean OD value of 20 replicates of the zero standard was determined and added to their three standard deviations.[64]

[11] = test system: active caspase-3; assay: Caspase-3 enzyme assay (ELISA) in Hep3B; assay type: cell-based, human; conditions: Hep3B cells
Experimental: Caspases are crucial mediators of apoptosis. Among them, caspase-3 is considered as a key effector caspase in inducing cell apoptosis and serves as a marker of programmed cell death.[58] Compounds 3c and 5 were tested for their effect on caspase-3 levels in the most sensitive liver cancer cell line Hep3B.
Caspase-3 is one of the crucial mediators of programmed cell death (apoptosis) as it is essential for the formation of apoptotic bodies.[67–70] Active caspase-3 level was measured in pg ml^−1 protein using an Invitrogen ELISA kit (catalog KHO1091). The following procedures were performed. First, 100 μL of the standard diluent buffer was added to the zero standard wells. Then, 100 μL of standards and controls or diluted samples were added to the appropriate microtitre wells. Cover wells were covered and incubated for 2 h at room temperature. The solution was decanted from wells. Then 100 μL of active caspase-3 detection antibody solution was pipetted into each well. The plate was covered and incubated for 1 h at room temperature. After that, 100 μL of Anti-Rabbit IgG HP working solution was added to each well. The wells were covered with a plate cover and incubated for 30 min at room temperature. Then, 100 μL of stabilized chromogen was added to each well. The liquid in the wells will begin to turn blue, and the wells were incubated for 30 min at room temperature. A stop solution was added to each well. The solution in the wells should change from blue to yellow. The plate was read within 2 h after adding the stop solution. Curve fitting software was used to generate the standard curve.

[12] = molecular target: T1, human DNA topoisomerase II beta (Topo2β); assay: Topo2β polymerase inhibition assay (ELISA), L-SR; assay type: cell-based; set-up: endogenous in cells; host or cells: MCF-7 (A4), Hep3B (A5), L-SR (A6) human cancer cell lines; conditions: against L-SR cell line
Experimental: as §1
This assay employs a quantitative sandwich enzyme immunoassay technique. […] Antibody specific for Topo2β was pre-coated onto a microplate. Standards and samples were pipetted into the wells and any Topo2β present was bound by the immobilized antibody. After removing any unbound substances, a biotin-conjugated antibody specific for Topo2β was added to the wells. After washing, avidin-conjugated Horseradish Peroxidase (HP) was added to the wells. […] The color development was stopped, and the intensity of the color was measured. […] The mean OD value of 20 replicates of the zero standard was determined and added to their three standard deviations.[64]

[13] = test system: Hep3B cells; assay: Annexin V-FITC/propidium iodide apoptosis assay; conditions: for Total %: apoptosis and necrosis total; for Total % / Early apoptosis % / Late apoptosis % / Necrosis %: treated at IC50; for percentage of apoptotic cells (summation of Q2 and Q3): early plus late apoptosis
Experimental: An Annexin-V-FITC apoptosis assay was used to determine apoptosis and necrosis. The cells were incubated with Annexin-V-FITC, centrifuged and then resuspended in 500 μL of 1× binding buffer. Then 5 μL of Annexin-V-FITC and 5 μL of propidium iodide (PI) were added, and the cells were then trypsinized and washed once with serum-containing media before incubation with Annexin-V-FITC at room temperature for 5 min in the dark. A FACSort Calibur flow cytometer (Becton Dickinson Biosciences) was used to analyze apoptosis.[56,57]

[14] = in vitro; conditions: human, MCF-10a normal breast cells
Experimental: as §5, §3
For the best results, the cells in the log phase of growth should be employed and the final cell number should not exceed 10^6 cells per cm^2. […] The absorbance was spectrophotometrically measured at a wavelength of 570 nm. The background absorbance of multiwell plates was measured at 690 nm and subtracted from the 450 nm measurement. Tests performed in multiwell plates might be read using an appropriate type of plate reader or the contents of individual wells might be transferred to appropriate size cuvettes for spectrophotometric measurement.

[15] = test system: Hep3B cells; assay: Cell cycle analysis by propidium iodide staining, flow cytometry; assay type: cell-based, human; conditions: Hep3B cells treated at IC50
Experimental: An apoptosis study was performed at the Cell Culture Unit, VACSERA, Cairo, Egypt. […] The treated cells were washed twice with ice-cold phosphate-buffered saline (PBS), centrifuged and then fixed in ice-cold 70% (v/v) ethanol to prevent clustering of cells during fixation. […] Then 3 mL of PBS was added, and the cells were centrifuged to remove the supernatant. The cells were analyzed by flow cytometry using a FACSort Calibur (Becton Dickinson Biosciences, CA, USA). Finally, the Cell Quest software was used to determine the cell cycle distribution.[65,66]

[16] = 48 h, read-out: Cytotoxicity IC50 Hep3B

IC50 at 48 h [2] | IC50 at 48 h [4] | melting point | Topo2β% inhibition [6] | Topo2β% inhibition [10] | Topo2β% inhibition [12] | IC50 at 48 h [14] | Molecule | IC50 [1] | IC50 [3] | IC50 [5, 16] | Caspase-3 Conc. [11] | Total % [13] | percentage of apoptotic cells (summation of Q2 and Q3) [13] | Early apoptosis % [13] | Late apoptosis % [13] | Necrosis % [13] | DNA content %G0–G1 [15] | DNA content %G2/M [15] | DNA content %S [15] | IC50 [5] | further results
68.5 ± 3.86 µM | 32.1 ± 1.68 µM | 101 to 103 °C | 71.92% | – | – | – | CC1COc2c(N3CCN(C)CC3)c(F)cc3c(=O)c(C(=O)N4NC(=O)CC4=N)cn1c23 (stereo not drawn) [Compound 7, 9-Fluoro-6-((5-imino-3-oxopyrazolidine-1-yl)carbonyl)-3-methyl-10-(4-methylpiperazin-1-yl)-2,3-dihydro-7H-[1,4]oxazino[2,3,4-ij]quinolin-7-one] | 4.37 ± 0.2 µM | 12.1 ± 0.73 µM | 6.99 ± 0.32 µM | – | – | – | – | – | – | – | – | – | – | –
– | – | – | – | – | – | – | 9-Fluoro-3-methyl-6-((3-methyl-5-oxo-4,5-dihydro-1H-pyrazol-1-yl)carbonyl)-10-(4-methylpiperazin-1-yl)-2,3-dihydro-7H-[1,4]oxazino[2,3,4-ij]quinolin-7-one [Compound 6] | – | – | – | – | – | – | – | – | – | – | – | – | – | IC50 [7]: 28.9 ± 1.75 µM; IC50 [8]: 13.1 ± 0.61 µM; IC50 [9]: 40.6 ± 1.88 µM
29.9 ± 1.52 µM | 20.2 ± 0.85 µM | – | 73.59% | 59.80% | 70.40% | 22.2 ± 1.41 µM | C[C@H]1COc2c(N3CCN(C)CC3)c(F)cc3c(=O)c(C(=O)O)cn1c23 [Levofloxacin, reference compound] | 2.79 ± 0.16 µM | 7.38 ± 0.31 µM | 8.94 ± 0.29 µM | 391.7 ± 5.86 pg/mL | 34.62% | 23.60% | 0.95% | 22.65% | 11.02% | 29.66% | 39.87% | 30.47% | 8.94 µM | –
40.6 ± 2.28 µM | 19.7 ± 1.03 µM | – | 83.73% | 78.30% | 80.29% | 30.4 ± 1.66 µM | CCOC(=O)CC(C)=NNC(=O)c1cn2c3c(c(N4CCN(C)CC4)c(F)cc3c1=O)OCC2C (stereo not drawn) [Compound 5, Ethyl 3-(2-(9-fluoro-3-methyl-10-(4-methylpiperazin-1-yl)-7-oxo-2,3-dihydro-7H-[1,4]oxazino[2,3,4-ij]quinoline-6-carbonyl)hydrazineylidene)butanoate] | 1.4 ± 0.06 µM | 0.96 ± 0.06 µM | 3.77 ± 0.17 µM | 375.8 ± 16.6 pg/mL | 38.11% | 32.21% | 9.54% | 22.67% | 5.9% | 38.49% | 22.42% | 39.09% | – | –
20 ± 0.76 µM | – | – | 81.33% | – | – | – | COc1ccc(C=NNC(=O)c2cn3c4c(c(N5CCN(C)CC5)c(F)cc4c2=O)OCC3C)cc1 (stereo not drawn) [Compound 3c, 9-Fluoro-3-methyl-10-(4-methylpiperazin-1-yl)-N′-(4-methoxybenzylidene)-7-oxo-2,3-dihydro-7H-[1,4]oxazino[2,3,4-ij]quinoline-6-carbohydrazide] | 40.6 ± 3.17 µM | 22.4 ± 1.34 µM | 0.43 ± 0.01 µM | 407.3 ± 7.55 pg/mL | 32.91% | 25.87% | 11.54% | 14.33% | 7.04% | 43.53% | 18.91% | 37.56% | 0.43 µM | –
35.2 ± 2.19 µM | 37.1 ± 1.79 µM | – | 73.22% | 63.18% | 69.85% | 23.9 ± 1.55 µM | COc1cc([C@@H]2c3cc4c(cc3[C@@H](O[C@@H]3O[C@@H]5CO[C@@H](C)O[C@H]5[C@H](O)[C@H]3O)[C@H]3COC(=O)[C@H]23)OCO4)cc(OC)c1O [Etoposide, reference compound] | 16.3 ± 0.72 µM | 3.38 ± 0.13 µM | 21.9 ± 0.72 µM | 460 ± 11.3 pg/mL | 27.09% | – | 3.41% | 9.37% | 14.31% | 36.14% | 37.62% | 26.24% | 21.9 µM | –
29.9 ± 1.68 µM | – | 238 to 240 °C | 68.77% | – | 69.38% | – | CC1COc2c(N3CCN(C)CC3)c(F)cc3c(=O)c(C(=O)N4CCCCC4)cn1c23 (stereo not drawn) [Compound 13a, 9-Fluoro-3-methyl-10-(4-methylpiperazin-1-yl)-6-((piperidin-1-yl)carbonyl)-2,3-dihydro-7H-[1,4]oxazino[2,3,4-ij]quinolin-7-one] | 12.1 ± 0.56 µM | 3.12 ± 0.19 µM | 3.46 ± 0.16 µM | – | – | – | – | – | – | – | – | – | – | –
24 ± 1.35 µM | – | 239 to 241 °C | 70.93% | – | – | – | CC1COc2c(N3CCN(C)CC3)c(F)cc3c(=O)c(C(=O)N4CCN(C)CC4)cn1c23 (stereo not drawn) [Compound 13c, 9-Fluoro-3-methyl-10-(4-methylpiperazin-1-yl)-6-((4-methylpiperazin-1-yl)carbonyl)-2,3-dihydro-7H-[1,4]oxazino[2,3,4-ij]quinolin-7-one] | 7.26 ± 0.34 µM | 13.6 ± 0.82 µM | 1.04 ± 0.05 µM | – | – | – | – | – | – | – | – | – | – | –
